The values below come from US20260144788A1, “COMPOUND FOR SHP2 PROTEIN DEGRADATION AND MEDICAL USES THEREOF” (UBIX THERAPEUTICS, INC., priority 2022, published 2026).

For this test, the target named is T1, SHP2 protein (Homo sapiens, UniProt Q06124).
T1 sequence (Q06124 1-593): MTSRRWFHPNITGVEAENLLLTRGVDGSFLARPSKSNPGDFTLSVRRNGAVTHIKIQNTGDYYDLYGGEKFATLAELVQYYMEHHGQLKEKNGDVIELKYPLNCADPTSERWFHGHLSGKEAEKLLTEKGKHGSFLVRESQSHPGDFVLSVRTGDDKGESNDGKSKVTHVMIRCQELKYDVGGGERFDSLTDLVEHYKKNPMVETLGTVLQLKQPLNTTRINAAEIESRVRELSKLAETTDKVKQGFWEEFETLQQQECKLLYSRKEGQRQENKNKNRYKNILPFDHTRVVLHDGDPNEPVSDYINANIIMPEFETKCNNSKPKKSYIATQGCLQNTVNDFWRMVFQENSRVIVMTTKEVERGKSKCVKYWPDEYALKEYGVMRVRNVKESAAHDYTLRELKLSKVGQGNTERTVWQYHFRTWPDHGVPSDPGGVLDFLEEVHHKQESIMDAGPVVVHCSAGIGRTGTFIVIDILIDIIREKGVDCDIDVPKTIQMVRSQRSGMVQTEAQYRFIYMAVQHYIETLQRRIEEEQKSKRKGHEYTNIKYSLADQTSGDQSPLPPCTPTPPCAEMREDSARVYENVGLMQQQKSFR
The test can be described thus: Measurement of SHP2 protein degradation in MV-4-11 cells (western blotting). Type of test: cell-based. Also on record: endogenous in cells. The conditions noted are these: harvested after 24 hours. In short, it runs like this:
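MV-4-11 cells in IMDM/5% FBS were exposed to compound at final 0.01, 0.1, 1 μM or 0.001, 0.01, 0.1 μM for 24 h, DMSO as negative control. BCA-normalised lysates were immunoblotted for SHP2 with GAPDH as loading control, read on LI-COR Odyssey.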

With `Cc1ncsc1-c1ccc(CNC(=O)[C@@H]2C[C@@H](O)CN2C(=O)[C@@H](NC(=O)C2(F)CC2)C(C)(C)C)c(OC2CCN(C(=O)C3(O)CCN(c4nccc(Sc5cnc(N6CCC(C)(CN)CC6)cn5)c4Cl)CC3)CC2)c1` [Example 70, (2S,4R)—N-(2-((1-(1-(4-((5-(4-(aminomethyl)-4-methylpiperidin-1-yl)pyrazin-2-yl)thio)-3-chloropyridin-2-yl)-4-hydroxypiperidine-4-carbonyl)piperidin-4-yl)oxy)-4-(4-methylthiazol-5-yl)benzyl)-1-((S)-2-(1-fluorocyclopropane-1-carboxamido)-3,3-dimethylbutanoyl)-4-hydroxypyrrolidine-2-carboxamide], the SHP2% degradation is, setting by setting: (0.01 μM) 84.5%; (0.1 μM) 99.9%.

Consider `Cc1ncsc1-c1ccc(CNC(=O)[C@@H]2C[C@@H](O)CN2C(=O)[C@@H](NC(=O)C2(F)CC2)C(C)(C)C)c(OCCC2CCN(C(=O)C3CN(c4nccc(Sc5cnc(N6CCC(C)(CN)CC6)cn5)c4Cl)C3)CC2)c1` [Example 55, (2S,4R)—N-(2-(2-(1-(1-(4-((5-(4-(aminomethyl)-4-methylpiperidin-1-yl)pyrazin-2-yl)thio)-3-chloropyridin-2-yl)azetidine-3-carbonyl)piperidin-4-yl)ethoxy)-4-(4-methylthiazol-5-yl)benzyl)-1-((S)-2-(1-fluorocyclopropane-1-carboxamido)-3,3-dimethylbutanoyl)-4-hydroxypyrrolidine-2-carboxamide], for which the SHP2% degradation is reported as 27.5% (0.01 μM) and 95.0% (0.1 μM).

As for `Cc1ncsc1-c1ccc(CNC(=O)[C@@H]2C[C@@H](O)CN2C(=O)[C@@H](NC(=O)C2(F)CC2)C(C)(C)C)c(O[C@H]2CC[C@H](C(=O)N3CC(Nc4cccc(Sc5cnc(N6CCC(C)(CN)CC6)cn5)c4Cl)C3)CC2)c1` [Example 11, (2S,4R)—N-(2-(((1R,4S)-4-(3-((3-((5-(4-(aminomethyl)-4-methylpiperidin-1-yl)pyrazin-2-yl)thio)-2-chlorophenyl)amino)azetidine-1-carbonyl)cyclohexyl)oxy)-4-(4-methylthiazol-5-yl)benzyl)-1-((S)-2-(1-fluorocyclopropane-1-carboxamido)-3,3-dimethylbutanoyl)-4-hydroxypyrrolidine-2-carboxamide], the SHP2% degradation reads like this: (0.01 μM) 83%; (0.1 μM) 97.9%.

For `CC(=O)N[C@H](C(=O)N1C[C@H](O)C[C@H]1C(=O)NCc1ccc(-c2scnc2C)cc1O[C@H]1CC[C@H](C(=O)N2CCC(Nc3nccc(Sc4cnc(N5CCC(C)(CN)CC5)cn4)c3Cl)CC2)CC1)C(C)(C)C` [Example 41, (2S,4R)-1-((S)-2-acetamido-3,3-dimethylbutanoyl)-N-(2-(((1R,4S)-4-(4-((4-((5-(4-(aminomethyl)-4-methylpiperidin-1-yl)pyrazin-2-yl)thio)-3-chloropyridin-2-yl)amino)piperidine-1-carbonyl)cyclohexyl)oxy)-4-(4-methylthiazol-5-yl)benzyl)-4-hydroxypyrrolidine-2-carboxamide], the SHP2% degradation came out at 98.2% (0.01 μM) and 99. % (0.1 μM).

Turning to `Cc1ncsc1-c1ccc(CNC(=O)[C@@H]2C[C@@H](O)CN2C(=O)[C@@H](NC(=O)C2(F)CC2)C(C)(C)C)c(O[C@H]2CC[C@H](C(=O)N3CC(Nc4cccc(Sc5cnc(N6CCC(C)(N)CC6)cn5)c4Cl)C3)CC2)c1` [Example 12, (2S,4R)—N-(2-(((1R,4S)-4-(3-((3-((5-(4-amino-4-methylpiperidin-1-yl)pyrazin-2-yl)thio)-2-chlorophenyl)amino)azetidine-1-carbonyl)cyclohexyl)oxy)-4-(4-methylthiazol-5-yl)benzyl)-1-((S)-2-(1-fluorocyclopropane-1-carboxamido)-3,3-dimethylbutanoyl)-4-hydroxypyrrolidine-2-carboxamide], the SHP2% degradation by setting is: (0.01 μM) 83.7%; (0.1 μM) 98.6%.

Take `Cc1ncsc1-c1ccc(CNC(=O)[C@@H]2C[C@@H](O)CN2C(=O)[C@@H](NC(=O)C2(F)CC2)C(C)(C)C)c(OC2CCN(CC3CCN(c4nccc(Sc5cnc(N6CCC(C)(CN)CC6)cn5)c4Cl)CC3)CC2)c1` [Example 9, (2S,4R)—N-(2-((1-((1-(4-((5-(4-(aminomethyl)-4-methylpiperidin-1-yl)pyrazin-2-yl)thio)-3-chloropyridin-2-yl)piperidin-4-yl)methyl)piperidin-4-yl)oxy)-4-(4-methylthiazol-5-yl)benzyl)-1-((S)-2-(1-fluorocyclopropane-1-carboxamido)-3,3-dimethylbutanoyl)-4-hydroxypyrrolidine-2-carboxamide]: the SHP2% degradation (0.01 μM) is recorded as 4.0% and the SHP2% degradation (0.1 μM) is reported as 81.1%.

With `Cc1ncsc1-c1ccc(CNC(=O)[C@@H]2C[C@@H](O)CN2C(=O)[C@@H](NC(=O)C2(F)CC2)C(C)(C)C)c(OCCCCCCN2CCC(CNc3cccc(Sc4cnc(N5CCC(C)(CN)CC5)cn4)c3Cl)CC2)c1` [Example 1, (2S,4R)—N-(2-((6-(4-(((3-((5-(4-(aminomethyl)-4-methylpiperidin-1-yl)pyrazin-2-yl)thio)-2-chlorophenyl)amino)methyl)piperidin-1-yl)hexyl)oxy)-4-(4-methylthiazol-5-yl)benzyl)-1-((S)-2-(1-fluorocyclopropane-1-carboxamido)-3,3-dimethylbutanoyl)-4-hydroxypyrrolidine-2-carboxamide], the SHP2% degradation (0.01 μM) is given as −33.4% and the SHP2% degradation (0.1 μM) is 6.5%.

Turning to `Cc1ncsc1-c1ccc(CNC(=O)[C@@H]2C[C@@H](O)CN2C(=O)[C@@H](NC(=O)C2(F)CC2)C(C)(C)C)c(OC2CCN(C(=O)[C@H]3C[C@@H](Nc4nccc(Sc5cnc(N6CCC(C)(N)CC6)cn5)c4Cl)C3)CC2)c1` [Example 60, (2S,4R)—N-(2-((1-((1S,3R)-3-((4-((5-(4-amino-4-methylpiperidin-1-yl)pyrazin-2-yl)thio)-3-chloropyridin-2-yl)amino)cyclobutanecarbonyl)piperidin-4-yl)oxy)-4-(4-methylthiazol-5-yl)benzyl)-1-((S)-2-(1-fluorocyclopropane-1-carboxamido)-3,3-dimethylbutanoyl)-4-hydroxypyrrolidine-2-carboxamide], the SHP2% degradation (0.01 μM) worked out at 81.5% and the SHP2% degradation (0.1 μM) came to 99.3%.

With `Cc1ncsc1-c1ccc(CNC(=O)[C@@H]2C[C@@H](O)CN2C(=O)[C@@H](NC(=O)C2(F)CC2)C(C)(C)C)c(O[C@H]2CC[C@H](C(=O)N3CCC(Nc4cccc(Sc5cnc(N6CCC(C)(CN)CC6)cn5)c4Cl)CC3)CC2)c1` [Example 17, (2S,4R)—N-(2-(((1R,4S)-4-(4-((3-((5-(4-(aminomethyl)-4-methylpiperidin-1-yl)pyrazin-2-yl)thio)-2-chlorophenyl)amino)piperidine-1-carbonyl)cyclohexyl)oxy)-4-(4-methylthiazol-5-yl)benzyl)-1-((S)-2-(1-fluorocyclopropane-1-carboxamido)-3,3-dimethylbutanoyl)-4-hydroxypyrrolidine-2-carboxamide], the SHP2% degradation (0.01 μM) was determined as 64.4% and the SHP2% degradation (0.1 μM) came to 96.6%.

On to `Cc1ncsc1-c1ccc(CNC(=O)[C@@H]2C[C@@H](O)CN2C(=O)[C@@H](NC(=O)C2(F)CC2)C(C)(C)C)c(OC2CCN(C(=O)C3CCN(c4nccc(Sc5cnc(N6CCC(C)(N)CC6)cn5)c4Cl)CC3)CC2)c1` [Example 66, (2S,4R)—N-(2-((1-(1-(4-((5-(4-amino-4-methylpiperidin-1-yl)pyrazin-2-yl)thio)-3-chloropyridin-2-yl)piperidine-4-carbonyl)piperidin-4-yl)oxy)-4-(4-methylthiazol-5-yl)benzyl)-1-((S)-2-(1-fluorocyclopropane-1-carboxamido)-3,3-dimethylbutanoyl)-4-hydroxypyrrolidine-2-carboxamide], for which the SHP2% degradation (0.01 μM) is 78.6% and the SHP2% degradation (0.1 μM) turned out to be 99.6%.

Turning to `Cc1ncsc1-c1ccc(CNC(=O)[C@@H]2C[C@@H](O)CN2C(=O)[C@@H](NC(=O)C2(F)CC2)C(C)(C)C)c(O[C@H]2CC[C@H](C(=O)N3CC(Nc4nccc(Sc5cnc(N6CCC(C)(N)CC6)cn5)c4Cl)C3)CC2)c1` [Example 21, (2S,4R)—N-(2-(((1R,4S)-4-(3-((4-((5-(4-amino-4-methylpiperidin-1-yl)pyrazin-2-yl)thio)-3-chloropyridin-2-yl)amino)azetidine-1-carbonyl)cyclohexyl)oxy)-4-(4-methylthiazol-5-yl)benzyl)-1-((S)-2-(1-fluorocyclopropane-1-carboxamido)-3,3-dimethylbutanoyl)-4-hydroxypyrrolidine-2-carboxamide], the SHP2% degradation (0.01 μM) amounted to 81.1% and the SHP2% degradation (0.1 μM) came out at 99.7%.
